# Values quoted from earlier work, collected in patent US7996156B2, “Methods for predicting properties of molecules” (priority 2002, dated 2011).
# Target: T1, aromatase enzyme (Homo sapiens, UniProt P11511)
# T1 sequence (P11511 1-503): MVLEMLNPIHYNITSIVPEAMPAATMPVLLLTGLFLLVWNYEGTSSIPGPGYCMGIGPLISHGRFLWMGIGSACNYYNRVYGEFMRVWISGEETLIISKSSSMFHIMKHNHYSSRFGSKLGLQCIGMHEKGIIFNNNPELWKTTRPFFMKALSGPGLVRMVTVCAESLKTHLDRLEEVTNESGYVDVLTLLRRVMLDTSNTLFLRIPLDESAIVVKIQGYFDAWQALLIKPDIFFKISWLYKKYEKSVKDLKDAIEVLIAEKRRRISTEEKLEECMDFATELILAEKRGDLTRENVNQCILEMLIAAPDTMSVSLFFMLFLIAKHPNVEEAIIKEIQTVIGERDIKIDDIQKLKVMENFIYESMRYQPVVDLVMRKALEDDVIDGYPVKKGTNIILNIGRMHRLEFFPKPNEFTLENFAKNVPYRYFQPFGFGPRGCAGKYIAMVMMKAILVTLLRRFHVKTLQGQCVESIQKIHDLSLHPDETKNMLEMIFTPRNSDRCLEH
# Settings: 50 steroids of Table 8; cited from earlier work
compound,measurement,value
C/C=C1\CC2C(CC[C@]3(C)C(=O)CCC23)[C@@]2(C)CCC(=O)C=C12 (stereo partly shown) [compound 50],"Binding (experimental binding data, aromatase enzyme)",0.96
